Assay results as given in the supplement of paper PMC10307832.

What was measured:
Assay in all cases: relative viability (nuclei count vs DMSO), 5 days (fraction); higher = more cells survive
VE-821 + Trametinib = compound: CS(=O)(=O)c1ccc(-c2cnc(N)c(C(=O)Nc3ccccc3)n2)cc1 [VE-821] + CC(=O)Nc1cccc(-n2c(=O)n(C3CC3)c(=O)c3c(Nc4ccc(I)cc4F)n(C)c(=O)c(C)c32)c1 [Trametinib] (partner 0.02 µM)
In short: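 After 5 days of treatment, lung cancer cells in 1536-well plates were fixed and stained in a single step (final 0.05% Triton X-100, 1% formaldehyde, 1 ug/ml Hoechst) and their nuclei counted on 4× images. Treatment had been applied by pin tool the day after seeding as one drug alone or as a fixed anchor-drug dose with five library-drug doses (not always all listed) in √10 steps. Relative viability is the nuclei count of treated wells divided by that of vehicle wells, and values are medians of duplicate plates.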

VE-821 = compound: CS(=O)(=O)c1ccc(-c2cnc(N)c(C(=O)Nc3ccccc3)n2)cc1 [VE-821]
In short: (§1)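 Lung cancer cell lines in 1536-well plates were exposed by pinning to five library-drug doses (not always all listed) √10 apart, following an overnight hold at 37 °C. MetaXpress counted Hoechst-stained nuclei from 4× images taken after 5 days without medium change. Viability is the median ratio of treated-well to vehicle-well nuclei across plates. Plates required control CV below 25% and at least one doubling.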

Ruxolitinib = compound: N#CC[C@H](C1CCCC1)n1cc(-c2ncnc3[nH]ccc23)cn1 [Ruxolitinib]
In short: as §1

Vismodegib = compound: CS(=O)(=O)c1ccc(C(=O)Nc2ccc(Cl)c(-c3ccccn3)c2)c(Cl)c1 [Vismodegib]
In short: as §1

Cell Line	relative viability (VE-821 + Trametinib; first compound 0.08 µM)	relative viability (VE-821 + Trametinib; first compound 0.253 µM)	relative viability (VE-821 + Trametinib; first compound 0.8 µM)	relative viability (VE-821 + Trametinib; first compound 2.53 µM)	relative viability (VE-821 + Trametinib; first compound 8 µM)	relative viability (VE-821; 0.08 µM)	relative viability (VE-821; 0.253 µM)	relative viability (VE-821; 0.8 µM)	relative viability (VE-821; 2.53 µM)	relative viability (VE-821; 8 µM)	relative viability (Ruxolitinib; 0.08 µM)	relative viability (Ruxolitinib; 0.253 µM)	relative viability (Ruxolitinib; 0.8 µM)	relative viability (Ruxolitinib; 2.53 µM)	relative viability (Ruxolitinib; 8 µM)	relative viability (Vismodegib; 0.08 µM)	relative viability (Vismodegib; 0.253 µM)	relative viability (Vismodegib; 0.8 µM)	relative viability (Vismodegib; 2.53 µM)	relative viability (Vismodegib; 8 µM)
NCI-H358	0.143	0.139	0.139	0.138	0.134	1.05	0.964	0.936	1.08	0.803	0.848	0.921	0.889	0.537	0.63	0.945	0.989	0.973	0.911	0.921
NCI-H23	0.459	0.457	0.34	0.278	0.272	1.03	0.888	0.983	0.818	0.319	1.04	1.01	0.995	0.84	0.772	1.05	0.931	0.886	0.926	0.773
EMC-BAC-2	0.925	0.856	0.984	1.02	0.966	1.18	0.896	1.02	0.965	0.858	0.974	0.946	1.06	0.978	0.678	0.99	0.953	0.903	1.01	0.934
NCI-H2009	0.266	0.287	0.254	0.263	0.174	1.03	0.961	1	1.06	0.863	1.03	1.01	1.04	0.842	0.657	0.982	0.977	0.976	0.964	0.992
NCI-H460	0.185	0.0922	0.121	0.11	0.0592	1.05	0.983	0.947	0.82	0.56	1.03	1.06	1.07	1	0.96	1.01	0.979	1	0.981	1.03
201T	0.743	0.721	0.725	0.734	0.693	1.03	0.94	0.937	1.01	0.703	1.05	1.1	1.18	1.19	1.1	0.983	0.942	0.977	0.964	0.968
NCI-H1993	0.534	0.604	0.61	0.505	0.502	0.92	0.844	0.916	0.929	0.692	0.872	0.774	1.04	1	0.771	0.807	0.916	0.859	0.875	0.87
RERF-LC-KJ	0.935	0.788	0.704	0.81	0.69	0.986	0.916	0.878	0.923	0.786	0.969	0.933	1.06	1.01	0.965	1.03	0.967	1.03	0.973	1.04
NCI-H1755	0.86	0.737	0.781	0.711	0.741	1.04	0.966	0.905	0.957	0.873	0.974	0.989	1.03	0.916	0.825	0.983	0.982	1.01	1	0.982
NCI-H1666	0.833	0.809	0.867	0.718	0.85	1.02	0.952	1.01	1.1	0.853	1	0.987	1.07	0.884	1.1	0.931	0.928	1	0.955	1.07
NCI-H2085	0.507	0.463	0.269		0.364	1.03	0.973	0.843	1.14	0.946	1.03	1.01	1.09	0.901	0.876	0.977	0.995	0.994	0.997	0.937
BEN	1.08	1.02	0.982	1.14	1.09	0.977	1.01	0.849	1.03	0.885	0.992	0.938	1.14	0.965	1.07	1	1.02	0.891	0.926	1.02
NCI-H661	0.703	0.536	0.563	0.658	0.52	0.986	0.998	0.976	0.997	0.919	0.958	0.963	1.04	1.03	0.92	0.973	0.975	0.997	0.909	1.02
NCI-H1395	1.11	0.988	0.913	1.02	0.763	0.963	0.89	0.792	0.888	0.665	0.816	0.767	1.02	0.913	0.771	0.834	0.878	0.853	0.829	1
LCLC-97TM1	0.225	0.152	0.194	0.227	0.217	1	0.964	0.969	1.13	0.703	0.895	0.852	0.826	0.892	0.949	1	0.984	0.904	0.802	0.979
HCC-827	0.613	0.524	0.565	0.52	0.499	1.06	1.02	1.1	1.06	1.04		1.01	0.891	0.859	0.901	1.04	1.01	1.04	1.03	1.03
